Test results as given in ChEMBL document CHEMBL5154896, “Discovery of a Novel Class of d-Amino Acid Oxidase Inhibitors Using the Schrödinger Computational Platform” (J Med Chem, 2022).

Key:
[1] = biological target: D-amino-acid oxidase (Mus musculus, UniProt P18894); assay: Inhibition of full length mouse DAO transfected with CHO-K1 cells incubated for 30 mins by Amplex red and horseradish peroxidase based fluorescence assay; type: cell-based
[2] = biological target: T1, D-amino-acid oxidase (Homo sapiens, UniProt P14920); assay: Inhibition of full length human DAO transfected in CHO-K1 cells incubated for 30 mins by Amplex red and horseradish peroxidase based fluorescence assay; type: cell-based
T1 sequence (P14920 whole entry): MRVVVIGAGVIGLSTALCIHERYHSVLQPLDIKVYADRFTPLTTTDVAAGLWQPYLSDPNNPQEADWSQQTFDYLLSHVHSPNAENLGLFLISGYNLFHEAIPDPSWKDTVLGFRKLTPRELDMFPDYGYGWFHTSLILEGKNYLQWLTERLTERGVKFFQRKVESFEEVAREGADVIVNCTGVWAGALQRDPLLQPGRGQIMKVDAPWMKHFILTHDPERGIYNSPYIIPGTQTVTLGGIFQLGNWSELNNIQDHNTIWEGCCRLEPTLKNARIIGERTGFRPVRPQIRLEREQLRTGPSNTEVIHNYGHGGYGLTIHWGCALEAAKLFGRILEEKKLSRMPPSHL

[3] = biological target: T1, D-amino-acid oxidase; assay: Inhibition of recombinant full length human DAO preincubated with compound for 20 mins measured after 4 hrs by Amplex red and horseradish peroxidase based fluorescence assay
[4] = Apparent permeability across apical to basolateral membrane in MDCK-MDR1 cells by LC-MS/MS analysis; settings: dog
[5] = Dose normalized AUC in C57/BL6 mouse at 2 mg/kg, po by LC-MS-MS analysis; type: ADME, organism-based; settings: in vivo
[6] = Volume of distribution at steady state in C57/BL6 mouse at 2 mg/kg, po or 0.5 mg/kg,iv by LC-MS-MS analysis; type: ADME, organism-based; settings: in vivo
[7] = Unbound brain-to-plasma concentration ratio in C57Bl/6 mouse at 2 mg/kg, po or 0.5 mg/kg,iv by LC-MS-MS analysis; type: ADME, organism-based; settings: mouse, brain, po, 2 mg/kg, BLD = below limit of detection
[8] = Unbound drug concentration in C57Bl/6 mouse plasma at 2 mg/kg, po or 0.5 mg/kg,iv by LC-MS-MS analysis; type: ADME, organism-based; settings: mouse, in vivo, po, 2 mg/kg, BLD = below limit of detection
[9] = Unbound drug concentration in C57Bl/6 mouse brain at 2 mg/kg, po or 0.5 mg/kg,iv by LC-MS-MS analysis; type: ADME, organism-based; settings: mouse, in vivo, po, 2 mg/kg, BLD = below limit of detection
[10] = Oral bioavailability in C57/BL6 mouse at 2 mg/kg by LC-MS-MS analysis; type: ADME, organism-based; settings: in vivo
[11] = Brain to plasma permeability coefficient, Kp in C57Bl/6 mouse 2 mg/kg, po or 0.5 mg/kg,iv by LC-MS-MS analysis; type: ADME, organism-based; settings: mouse, brain, po, 2 mg/kg, BLD = below limit of detection

D-amino-acid oxidase (Mus musculus, UniProt P18894), sequence (P18894 whole entry): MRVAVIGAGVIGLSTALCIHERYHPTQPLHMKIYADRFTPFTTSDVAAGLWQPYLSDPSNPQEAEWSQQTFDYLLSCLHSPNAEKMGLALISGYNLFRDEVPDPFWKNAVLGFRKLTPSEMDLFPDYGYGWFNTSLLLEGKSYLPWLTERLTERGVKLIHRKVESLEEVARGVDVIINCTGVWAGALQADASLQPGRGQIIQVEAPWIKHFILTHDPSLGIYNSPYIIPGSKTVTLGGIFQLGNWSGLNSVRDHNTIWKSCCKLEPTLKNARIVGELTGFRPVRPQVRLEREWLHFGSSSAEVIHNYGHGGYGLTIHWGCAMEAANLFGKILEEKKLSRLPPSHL

Structure (SMILES) | EC50 [1] [µM] | EC50 [2] [µM] | IC50 [3] [µM] | further results
O=c1[nH]cc(SCc2ccc(Cl)cc2)[nH]c1=O | 0.51 | 0.4 | 0.15 | 
N#Cc1cccc(CSc2c[nH]c(=O)c(=O)[nH]2)c1 |  | 3.8 | 0.44 | 
O=c1[nH]cc(SCc2ccc(S(F)(F)(F)(F)F)cc2)[nH]c1=O | 0.5 |  |  | 
O=c1[nH]cc(CCc2ccc3ncccc3c2)[nH]c1=O |  | 8.4 | 0.58 | 
N#Cc1ccc(SCc2c[nH]c(=O)c(=O)[nH]2)cc1F | 0.97 | 0.44 | 0.046 | 
O=c1[nH]cc([C@@H]2COc3cc(F)ccc3S2)[nH]c1=O | 0.54 | 0.56 | 0.094 | 
O=c1[nH]nc(Cc2ccc(Cl)cc2)cc1O | 0.0042 |  |  | 
C[C@@]1(c2c[nH]c(=O)c(=O)[nH]2)COc2cc(C(F)(F)F)ccc2S1 | 0.26 |  |  | 
CS(=O)(=O)c1ccc2c(c1)OC[C@@H](c1c[nH]c(=O)c(=O)[nH]1)S2 | 1.2 | 0.27 | 0.025 | 
O=c1[nH]cc(SCc2ccc(F)c(F)c2)[nH]c1=O |  | 0.81 | 0.3 | 
O=c1[nH]c(=O)n(O)cc1CCc1ccccc1 |  |  |  | Papp A→B [4]: 150 nm/s
O=c1[nH]cc(SCc2ccc(C(F)(F)F)cc2)[nH]c1=O | 0.24 |  |  | 
N#Cc1ccc(CSc2c[nH]c(=O)c(=O)[nH]2)cc1F | 0.68 |  |  | 
C[C@@]1(c2c[nH]c(=O)c(=O)[nH]2)COc2cc(Cl)ccc2S1 | 0.1 |  |  | 
O=c1[nH]cc(CCc2ccc(OC(F)F)nc2)[nH]c1=O |  | 8.2 | 0.67 | 
O=c1[nH]cc(SCc2ccc(C(F)F)cc2)[nH]c1=O | 0.59 | 0.45 | 0.07 | 
O=c1[nH]cc(CSc2ccc(S(F)(F)(F)(F)F)cc2)[nH]c1=O | 0.79 | 0.71 | 0.08 | 
O=c1[nH]cc([C@@H]2COc3cc(Cl)ccc3S2)[nH]c1=O | 0.22 | 0.14 | 0.021 | 
O=c1[nH]cc(Cc2ccc(Cl)cc2)[nH]c1=O |  |  | 3.3 | 
CS(=O)(=O)c1ccc(CSc2c[nH]c(=O)c(=O)[nH]2)cc1 | 0.54 | 0.44 | 0.09 | 
O=c1[nH]c(=O)n(O)cc1CCc1ccc(Cl)cc1 |  |  |  | AUC/dose [5]: 13.6 ng·h/mL; Papp A→B [4]: 240 nm/s; Vdss [6]: 1.9 L/kg; K(p,uu,brain) [7]: Bld; Fu [8]: Bld; Fu [9]: Bld; bioavailability [10]: 9%; Kp [11]: Bld
N#Cc1ccc(SCc2c[nH]c(=O)c(=O)[nH]2)cc1Cl | 0.56 |  |  | 
COc1ccc(CCc2c[nH]c(=O)c(=O)[nH]2)cc1 |  |  | 0.32 | 
C[C@@]1(c2c[nH]c(=O)c(=O)[nH]2)COc2cc(S(C)(=O)=O)ccc2S1 | 1.5 | 0.39 | 0.051 | 
